Structures can show the parent of a compound that is named as a salt. Where two headings read alike, the source gives them in different places.
Target: T1, NMDA receptor glycine site (Rattus norvegicus, UniProt P35439)
T1 construct: fresh brain tissue including cerebral cortex and hippocampus from male Sprague Dawley rats was homogenized; tissue Analytical Biological Services Inc; host or cells: rat brain membranes (cerebral cortex and hippocampus, male Sprague Dawley rats)
Test: Test A: Inhibition of binding of [3H]-MDL105,519 to brain membranes
Text: Test A: Inhibition of Binding of [^3H]-MDL105,519:
Binding of compounds to the NMDA receptor glycine site may be assessed by measuring the ability of test compounds to inhibit the binding of tritiated MDL105,519 to brain membranes bearing the receptor.
Briefly, fresh brain tissue including cerebral cortex and hippocampus from male Sprague Dawley rats was homogenized in 0.32 M sucrose and centrifuged at low speed to separate cellular membranes from other cellular components. The membranes were then washed 3 times using deionized water, followed by treatment with 0.04% Triton X-100. Finally, membranes were washed six times in 50 mM Tris citrate buffer, pH 7.4, and frozen at −80° C. until use.
[^3H]MDL105,519 (72 Ci/mmol) was purchased from Amersham. Cold MDL105,519 was purchased from Sigma/RBI. […] On the day of the experiment, brain membranes were thawed at room temperature and suspended in 50 mM tris acetate buffer, pH 7.4 (“TAB”). Seventy-five micro grams per milliliter protein (by using the BioRad dye) were used for competition binding. The experiments were carried out using 96-well plates. […] Non specific binding was determined by using 100 μM of unlabeled MDL105,519. […] After incubation, unbound [^3H]ML105,519 was removed by filtration onto GF/B Unifilter plates using a Packard harvester. Filters were washed four times with ice cold TAB (total of 1.2 mL buffer). The plates were dried overnight at room temperature and bound radioactivity was measured on a Packard TopCount after the addition of 45 μL per well of the MICROSCINT O.
Human Brain Membranes: Human brain membranes were obtained from Analytical Biological Services Inc., and assays were performed as described for rat membranes.
Data analysis: Data was analyzed using a Microsoft Excel spreadsheet and GraphPad Prizm software and potency of compounds is expressed as the Ki (nM).

[1] = inhibition of [3H]-MDL105,519 binding to brain membranes, 1.2 nM radioligand, 30 minutes at room temperature

Ki	also measured	SMILES
1.78 µM		Cc1cccnc1C(C)n1nc(O)c2[nH]c3cc(Cl)ccc3c(=O)c2c1=O (racemic) [Ex. 7, (+/−)-7-Chloro-4-hydroxy-2-(1-methyl(3-methylpyrid-2-yl)methyl)-1,2,5,10-tetrahydropydridazino[4,5-b]quinoline-1,10-dione methanesulfonate]
2.42 µM		CC(c1cc[n+]([O-])cc1)n1[nH]c(=O)c2nc3cc(Cl)ccc3c(O)c2c1=O (racemic) [Ex. 11, (+/−)-7-Chloro-4-hydroxy-2-(1-pyrid-4-yl-N-oxide)ethyl-1,2,5,10-tetrahydrpyridazino[4,5-b]quinoline-1,10-dione]
	Ki (inhibition of [3H]-MDL105,519 binding to brain membranes, bound in μM): > 10 µM	O=c1[nH]n(C(c2ccccn2)C2CCCC2)c(=O)c2c(O)c3ccc(Cl)cc3nc12 (racemic) [Ex. 3, (+/−)-7-Chloro-4-hydroxy-2-(1-cyclopentyl-1-pyrid-2-yl)methyl-1,2,5,10-tetrahydropyridazino[4,5-b]quinoline-1,10-dione hydrochloride]
0.228 µM		Cc1cc(C(C)n2nc(O)c3[nH]c4cc(Cl)ccc4c(=O)c3c2=O)ccn1 (racemic) [Ex. 8, (+/−)-7-Chloro-4-hydroxy-2-(1-methyl(2-methylpyrid-4-yl)methyl)-1,2,5,10-tetrahydropyridazino[4,5-b]quinoline-1,10-dione methanesulfonate]
0.907 µM		Cc1cnccc1C(C)n1nc(O)c2[nH]c3cc(Cl)ccc3c(=O)c2c1=O (racemic) [Ex. 5, (+/−)-7-Chloro-4-hydroxy-2-(1-(3-methylpyrid-4-yl))ethyl-1,2,5,10-tetrahydropyridazino[4,5-b]quinoline-1,10-dione]
	Ki [1]: 3.69 µM	O=c1c2ccc(Cl)cc2[nH]c2c(O)nn(C(c3ccccc3)c3ccncc3)c(=O)c12 (racemic) [Ex. 4, (+/−)-7-Chloro-4-hydroxy-2-(1-phenyl-1-pyrid-4-yl)methyl-1,2,5,10-tetrahydropyridazino[4,5-b]quinoline-1,10-dione]
2.57 µM		CC(c1cccc[n+]1[O-])n1nc(O)c2[nH]c3cc(Cl)ccc3c(=O)c2c1=O (racemic) [Ex. 10, (+/−)-7-Chloro-4-hydroxy-2-(1-pyrid-2-yl-N-oxide)ethyl-1,2,5,10-tetrahydropyridazino[4,5-b]quinoline-1,10-dione]
	Ki [1]: 0.996 µM	O=c1c2ccc(Cl)cc2[nH]c2c(O)nn(C(c3ccccn3)C3CC3)c(=O)c12 (racemic) [Ex. 1, (+/−)-7-Chloro-4-hydroxy-2-(1-cyclopropyl-1-pyrid-2-yl)methyl-1,2,5,10-tetrahydropyridazino[4,5-b]quinoline-1,10-dione]

Reference: US6946463B2, “1,2,5,10-tetrahydropyridazino[4,5-b]quinoline-1,10-diones and their use for the treatment of pain” (Astrazeneca AB, priority 2000, dated 2005)
